Assay results from patent US9751869B2, “LXR modulators” (BRISTOL-MYERS SQUIBB COMPANY, priority 2013, dated 2017).
pEC50: −log10 of the molar value.

Target: T1, LXRβ (Homo sapiens, UniProt P55055)
T1 construct: Co-transfection expression plasmids, comprising full-length LXRα (pCMX-h LXRα or LXRβ (pCMX-hLXRβ)); expressed in transfected cells; host or cells: CV-1 African green monkey kidney cells, transient transfection with pCMX-hLXRβ
T1 sequence (P55055 1-460): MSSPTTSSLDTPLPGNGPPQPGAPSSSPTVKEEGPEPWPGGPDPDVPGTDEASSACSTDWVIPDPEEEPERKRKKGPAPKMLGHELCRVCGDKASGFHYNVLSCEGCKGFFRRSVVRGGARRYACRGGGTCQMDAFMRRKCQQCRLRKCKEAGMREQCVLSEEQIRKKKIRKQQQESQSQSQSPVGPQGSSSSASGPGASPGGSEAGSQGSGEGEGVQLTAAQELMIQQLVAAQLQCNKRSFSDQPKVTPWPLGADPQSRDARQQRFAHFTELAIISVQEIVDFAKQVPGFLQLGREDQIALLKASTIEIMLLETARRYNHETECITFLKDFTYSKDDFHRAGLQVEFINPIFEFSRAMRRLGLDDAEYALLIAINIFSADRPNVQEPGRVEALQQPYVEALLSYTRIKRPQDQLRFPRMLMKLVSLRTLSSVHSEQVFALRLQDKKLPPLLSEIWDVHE
T1 sequence (P19793 1-462 partner): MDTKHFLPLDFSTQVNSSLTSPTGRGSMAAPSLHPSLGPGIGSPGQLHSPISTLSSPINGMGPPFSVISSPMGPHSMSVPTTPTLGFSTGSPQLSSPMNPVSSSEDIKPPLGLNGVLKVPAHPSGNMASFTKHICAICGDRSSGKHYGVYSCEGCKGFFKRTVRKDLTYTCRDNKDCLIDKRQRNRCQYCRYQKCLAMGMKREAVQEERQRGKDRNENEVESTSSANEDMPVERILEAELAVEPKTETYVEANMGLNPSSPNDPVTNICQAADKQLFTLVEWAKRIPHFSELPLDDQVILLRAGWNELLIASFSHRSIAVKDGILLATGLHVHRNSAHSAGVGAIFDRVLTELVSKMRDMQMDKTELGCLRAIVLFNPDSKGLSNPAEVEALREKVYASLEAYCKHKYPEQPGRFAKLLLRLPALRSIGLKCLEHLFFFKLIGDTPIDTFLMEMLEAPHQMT
Test: LXR/LXRE co-transfection assay (luciferase reporter) in CV-1 cells, LXRβ
Assay type: cell-based
Details: for pEC50: CV-1 cells transfected with pCMX-hLXRβ and LXREx1-Tk-Luciferase, 20 hours incubation, read-out: LXRbeta agonism EC50; for Emax: CV-1 cells, relative to maximum response of high control N-(3-((4-fluorophenyl)-(naphthalene-2-sulfonyl)amino)propyl)-2,2-dimethylpropionamide, read-out: LXRbeta % EFFICACY
How it was run: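 Luciferase read-out after 20 h compound treatment at 37 °C of CV-1 cells carrying transfected hLXRβ plus one-copy LXRE reporter, endogenous RXR partnering. Sigmoidal fit of 10-point half-log curves (4 wells each) gave EC50; % efficacy versus maximal response of the propionamide reference agonist.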

SMILES | pEC50 | Emax
Cn1nc(C(F)(F)CO)cc1-c1ccc(-c2cccc(S(C)(=O)=O)c2)cc1-n1nncc1-c1ccc(Cl)cc1 [Example 24, 2-(5-(3-(5-(4-chlorophenyl)-1H-1,2,3-triazol-1-yl)-3′-(methylsulfonyl)-[1,1′-biphenyl]-4-yl)-1-methyl-1H-pyrazol-3-yl)-2,2-difluoroethanol] | 5.86 | 48%
Cc1nc(-c2cc(-c3cccc(S(C)(=O)=O)c3)ccc2-n2ccc(C(F)(F)F)n2)c(-c2ccc(Cl)cc2)o1 [Example 401, 5-(4-chlorophenyl)-2-methyl-4-(3′-(methylsulfonyl)-4-(3-(trifluoromethyl)-1H-pyrazol-1-yl)biphenyl-3-yl)oxazole] | 6.88 | 76%
Cc1nc(-c2ccc3c(c2)OC(F)(F)O3)c(-c2cc(-c3cc(F)c(CO)c(S(C)(=O)=O)c3)ccc2-c2cc(C(F)(F)C(=O)NC(C)(C)C)nn2C)o1 [Example 84, N-tert-butyl-2-(5-(3-(4-(2,2-difluorobenzo[d][1,3]dioxol-5-yl)-2-methyloxazol-5-yl)-3′-fluoro-4′-(hydroxymethyl)-5′-(methylsulfonyl)biphenyl-4-yl)-1-methyl-1H-pyrazol-3-yl)-2,2-difluoroacetamide] | 7.21 | 26%
Cc1nc(-c2ccc3c(c2)OC(F)(F)O3)c(-c2cc(-c3cc(F)c(CO)c(S(C)(=O)=O)c3)ccc2-c2cc(C(=O)NC(C)(C)C#N)nn2C)o1 [Example 55, N-(2-cyanopropan-2-yl)-5-(3-(4-(2,2-difluorobenzo[d][1,3]dioxol-5-yl)-2-methyloxazol-5-yl)-3′-fluoro-4′-(hydroxymethyl)-5′-(methylsulfonyl)biphenyl-4-yl)-1-methyl-1H-pyrazole-3-carboxamide] | 6.12 | 24%
Cc1nc(-c2cc(-c3cccc(S(C)(=O)=O)c3)ccc2-n2ccc(C(N)=O)n2)c(-c2ccc(OC(F)(F)F)cc2)o1 [Example 416] | 5.52 | 27%
Cc1nc(-c2ccc(OC(F)(F)F)cc2)c(-c2cc(-c3cccc(S(C)(=O)=O)c3)ccc2-n2cc(C#N)c(C3CC3)n2)o1 [Example 447, 3-cyclopropyl-1-(3-(2-methyl-4-(4-(trifluoromethoxy)phenyl)oxazol-5-yl)-3′-(methylsulfonyl)-[1,1′-biphenyl]-4-yl)-1H-pyrazole-4-carbonitrile] | 6.94 | 28%
Cc1nc(-c2ccc(Cl)cc2Cl)c(-c2cc(-c3cc(F)c(CO)c(S(C)(=O)=O)c3)ccc2-n2cc(Cl)c(C(F)(F)F)n2)o1 [Example 424, (4′-(4-chloro-3-(trifluoromethyl)-1H-pyrazol-1-yl)-3′-(4-(2,4-dichlorophenyl)-2-methyloxazol-5-yl)-3-fluoro-5-(methylsulfonyl)-[1,1′-biphenyl]-4-yl)methanol] | 7.89 | 60%
Cn1nc(C(F)(F)CO)cc1-c1ccc(-c2cccc(S(C)(=O)=O)c2)cc1-n1nncc1-c1ccc2c(c1)OC(F)(F)O2 [Example 35, 2-(5-(3-(5-(2,2-difluorobenzo[d][1,3]dioxol-5-yl)-1H-1,2,3-triazol-1-yl)-3′-(methylsulfonyl)-[1,1′-biphenyl]-4-yl)-1-methyl-1H-pyrazol-3-yl)-2,2-difluoroethanol] | 5.65 | 87%
Cc1c(C(C)(F)F)nn(C)c1-c1ccc(-c2cc(F)c(CO)c(S(C)(=O)=O)c2)cc1-n1nncc1-c1ccc(OC(F)(F)F)cc1 [Example 5] | 7.92 | 109%
Cc1nc(-c2ccc(OC(F)F)c(F)c2)c(-c2cc(-c3cccc(S(C)(=O)=O)c3)ccc2-c2cc(C(F)(F)C(N)=O)nn2C)o1 [Example 72, 2-(5-(3-(4-(4-(difluoromethoxy)-3-fluorophenyl)-2-methyloxazol-5-yl)-3′-(methylsulfonyl)biphenyl-4-yl)-1-methyl-1H-pyrazol-3-yl)-2,2-difluoroacetamide] | 7.14 | 60%
Cc1nc(-c2cc(-c3ccc(CO)c(S(C)(=O)=O)c3)ccc2-n2nc(C(F)(F)F)cc2C)c(-c2ccc3c(c2)OC(F)(F)O3)o1 [Example 390, (3′-(5-(2,2-difluorobenzo[d][1,3]dioxol-5-yl)-2-methyloxazol-4-yl)-4′-(5-methyl-3-(trifluoromethyl)-1H-pyrazol-1-yl)-3-(methylsulfonyl)biphenyl-4-yl) methanol] | 8.00 | 72%
Cc1cc(C(F)(F)F)n(-c2ccc(-c3cc(F)c(CO)c(S(C)(=O)=O)c3)cc2-c2nc(C)oc2-c2ccc(OC(F)F)cc2)n1 [Example 391, (3′-(5-(4-(difluoromethoxy)phenyl)-2-methyloxazol-4-yl)-3-fluoro-4′-(3-methyl-5-(trifluoromethyl)-1H-pyrazol-1-yl)-5-(methylsulfonyl)biphenyl-4-yl)methanol] | 6.78 | 56%
Cc1nc(-c2ccc(OC(F)(F)F)cc2)c(-c2cc(-c3cc(F)c(CO)c(S(C)(=O)=O)c3)ccc2-n2cc(C#N)c(C3CC3)n2)o1 [Example 446, 3-cyclopropyl-1-(3′-fluoro-4′-(hydroxymethyl)-3-(2-methyl-4-(4-(trifluoromethoxy)phenyl)oxazol-5-yl)-5′-(methylsulfonyl)-[1,1′-biphenyl]-4-yl)-1H-pyrazole-4-carbonitrile] | 7.52 | 28%
Cn1nc(C(F)(F)C(=O)NC(C)(C)CO)cc1-c1ccc(-c2cc(F)c(CO)c(S(C)(=O)=O)c2)cc1-n1nncc1-c1ccc(OC(F)(F)F)cc1 [Example 27, 2,2-difluoro-2-(5-(3′-fluoro-4′-(hydroxymethyl)-5′-(methylsulfonyl)-3-(5-(4-(trifluoromethoxy)phenyl)-1H-1,2,3-triazol-1-yl)-[1,1′-biphenyl]-4-yl)-1-methyl-1H-pyrazol-3-yl)-N-(1-hydroxy-2-methylpropan-2-yl)acetamide] | 5.81 | 111%
Cc1cc(C(F)(F)F)nn1-c1ccc(-c2cc(Cl)c(CO)c(S(C)(=O)=O)c2)cc1-n1nncc1-c1ccc(OC(F)(F)F)cc1 [Example 302, [3-chloro-5-(methylsulfonyl)-4′-[5-methyl-3-(trifluoromethyl)-1H-pyrazol-1-yl]-3′-(5-{4-[(trifluoromethyl)oxy]phenyl}-1H-1,2,3-triazol-1-yl)biphenyl-4-yl]methanol] | 6.64 | 93%
Cc1nc(-c2ccc(OC(F)(F)F)cc2)c(-c2cc(-c3cc(F)c(CO)c(S(C)(=O)=O)c3)ccc2-c2cc(C(F)(F)F)nn2C)o1 [Example 93, (3-fluoro-4′-(1-methyl-3-(trifluoromethyl)-1H-pyrazol-5-yl)-3′-(2-methyl-4-(4-(trifluoromethoxy)phenyl)oxazol-5-yl)-5-(methylsulfonyl)biphenyl-4-yl)methanol] | 7.80 | 93%
Cc1nc(-c2ccc(OC(F)(F)F)cc2)c(-c2cc(-c3cc(F)c(CO)c(S(C)(=O)=O)c3)ccc2-n2ccc(C(C)(C)C#N)n2)o1 [Example 377, 2-(1-(3′-fluoro-4′-(hydroxymethyl)-3-(2-methyl-4-(4-(trifluoromethoxy)phenyl)oxazol-5-yl)-5′-(methylsulfonyl)-[1,1′-biphenyl]-4-yl)-1H-pyrazol-3-yl)-2-methylpropanenitrile] | 7.55 | 23%
